Test results: ChEMBL document CHEMBL4507315 (2021)

What was measured:
[1] = molecular target: Glycogen synthase kinase-3 alpha (Homo sapiens) (UniProt P49840); settings: Compound concentration 100.0 nM
[2] = molecular target: Serine/threonine-protein kinase D1 (Homo sapiens) (UniProt Q15139); settings: Compound concentration 100.0 nM
[3] = molecular target: Ribosomal protein S6 kinase alpha-1 (Homo sapiens) (UniProt Q15418); settings: Compound concentration 100.0 nM
[4] = molecular target: Ribosomal protein S6 kinase alpha-4 (Homo sapiens) (UniProt O75676); settings: Compound concentration 100.0 nM
[5] = molecular target: 5-hydroxytryptamine receptor 6 (Homo sapiens) (UniProt P50406); settings: Compound concentration 10.0 uM
[6] = molecular target: Cyclin-dependent kinase 5 (Homo sapiens) (UniProt Q00535); settings: Compound concentration 100.0 nM
[7] = molecular target: Tyrosine-protein kinase Fgr (Homo sapiens) (UniProt P09769); settings: Compound concentration 100.0 nM
[8] = molecular target: Beta-2 adrenergic receptor (Homo sapiens) (UniProt P07550); settings: Compound concentration 10.0 uM
[9] = molecular target: RAC-gamma serine/threonine-protein kinase (Homo sapiens) (UniProt Q9Y243); settings: Compound concentration 100.0 nM
[10] = molecular target: Receptor-interacting serine/threonine-protein kinase 2 (Homo sapiens) (UniProt O43353); settings: Compound concentration 100.0 nM
[11] = molecular target: Cyclin-dependent kinase-like 2 (Homo sapiens) (UniProt Q92772); settings: Compound concentration 100.0 nM
[12] = molecular target: Mitogen-activated protein kinase kinase kinase 14 (Homo sapiens) (UniProt Q99558); settings: Compound concentration 100.0 nM
[13] = molecular target: Serine/threonine-protein kinase Nek5 (Homo sapiens) (UniProt Q6P3R8); settings: Compound concentration 100.0 nM
[14] = molecular target: Serine/threonine-protein kinase PLK4 (Homo sapiens) (UniProt O00444); settings: Compound concentration 100.0 nM
[15] = molecular target: Cyclin-dependent kinase 8 (Homo sapiens) (UniProt P49336); settings: Compound concentration 100.0 nM
[16] = molecular target: Mitogen-activated protein kinase kinase kinase kinase 1 (Homo sapiens) (UniProt Q92918); settings: Compound concentration 100.0 nM
[17] = molecular target: Mitogen-activated protein kinase 6 (Homo sapiens) (UniProt Q16659); settings: Compound concentration 100.0 nM
[18] = molecular target: Interleukin-1 receptor-associated kinase 3 (Homo sapiens) (UniProt Q9Y616); settings: Compound concentration 100.0 nM
[19] = molecular target: Inhibitor of nuclear factor kappa-B kinase subunit alpha (Homo sapiens) (UniProt O15111); settings: Compound concentration 100.0 nM
[20] = molecular target: Serine/threonine-protein kinase D3 (Homo sapiens) (UniProt O94806); settings: Compound concentration 100.0 nM
[21] = molecular target: Tyrosine-protein kinase JAK1 (Homo sapiens) (UniProt P23458); settings: Compound concentration 100.0 nM
[22] = molecular target: Muscarinic acetylcholine receptor M4 (Homo sapiens) (UniProt P08173); settings: Compound concentration 10.0 uM
[23] = molecular target: Sigma intracellular receptor 2 (Homo sapiens, UniProt Q5BJF2); settings: Compound concentration 10.0 uM
[24] = molecular target: cGMP-dependent protein kinase 1 (Homo sapiens) (UniProt Q13976); settings: Compound concentration 100.0 nM
[25] = molecular target: Protein kinase C iota type (Homo sapiens) (UniProt P41743); settings: Compound concentration 100.0 nM
[26] = molecular target: Non-receptor tyrosine-protein kinase TYK2 (Homo sapiens) (UniProt P29597); settings: Compound concentration 100.0 nM
[27] = molecular target: Protein kinase C delta type (Homo sapiens) (UniProt Q05655); settings: Compound concentration 100.0 nM
[28] = molecular target: Vascular endothelial growth factor receptor 1 (Homo sapiens) (UniProt P17948); settings: Compound concentration 100.0 nM
[29] = molecular target: Serine/threonine-protein kinase 33 (Homo sapiens) (UniProt Q9BYT3); settings: Compound concentration 100.0 nM
[30] = molecular target: Muscle, skeletal receptor tyrosine-protein kinase (Homo sapiens) (UniProt O15146); settings: Compound concentration 100.0 nM
[31] = molecular target: Serine/threonine-protein kinase 24 (Homo sapiens) (UniProt Q9Y6E0); settings: Compound concentration 100.0 nM
[32] = molecular target: Serine/threonine-protein kinase DCLK3 (Homo sapiens) (UniProt Q9C098); settings: Compound concentration 100.0 nM
[33] = molecular target: RAC-beta serine/threonine-protein kinase (Homo sapiens) (UniProt P31751); settings: Compound concentration 100.0 nM
[34] = molecular target: D(2) dopamine receptor (Homo sapiens) (UniProt P14416); settings: Compound concentration 10.0 uM
[35] = molecular target: SRSF protein kinase 1 (Homo sapiens) (UniProt Q96SB4); settings: Compound concentration 100.0 nM
[36] = molecular target: Tyrosine-protein kinase Fyn (Homo sapiens) (UniProt P06241); settings: Compound concentration 100.0 nM
[37] = molecular target: Tyrosine-protein kinase HCK (Homo sapiens) (UniProt P08631); settings: Compound concentration 100.0 nM
[38] = molecular target: Transient receptor potential cation channel subfamily M member 6 (Homo sapiens) (UniProt Q9BX84); settings: Compound concentration 100.0 nM
[39] = molecular target: Mitogen-activated protein kinase kinase kinase 3 (Homo sapiens) (UniProt Q99759); settings: Compound concentration 100.0 nM
[40] = system: Phosphatidylinositol 4,5-bisphosphate 3-kinase catalytic subunit alpha isoform (Homo sapiens), P42336 [I800L]; settings: Compound concentration 100.0 nM
[41] = molecular target: Phosphatidylinositol 3-kinase catalytic subunit type 3 (Homo sapiens) (UniProt Q8NEB9); settings: Compound concentration 100.0 nM
[42] = molecular target: cAMP-dependent protein kinase catalytic subunit alpha (Homo sapiens) (UniProt P17612); settings: Compound concentration 100.0 nM
[43] = molecular target: 5'-AMP-activated protein kinase catalytic subunit alpha-2 (Homo sapiens) (UniProt P54646); settings: Compound concentration 100.0 nM
[44] = molecular target: Leukocyte tyrosine kinase receptor (Homo sapiens) (UniProt P29376); settings: Compound concentration 100.0 nM
[45] = molecular target: Ribosomal protein S6 kinase alpha-6 (Homo sapiens) (UniProt Q9UK32); settings: Compound concentration 100.0 nM

Chain of Non-receptor tyrosine-protein kinase TYK2 (Homo sapiens) (P29597 whole entry): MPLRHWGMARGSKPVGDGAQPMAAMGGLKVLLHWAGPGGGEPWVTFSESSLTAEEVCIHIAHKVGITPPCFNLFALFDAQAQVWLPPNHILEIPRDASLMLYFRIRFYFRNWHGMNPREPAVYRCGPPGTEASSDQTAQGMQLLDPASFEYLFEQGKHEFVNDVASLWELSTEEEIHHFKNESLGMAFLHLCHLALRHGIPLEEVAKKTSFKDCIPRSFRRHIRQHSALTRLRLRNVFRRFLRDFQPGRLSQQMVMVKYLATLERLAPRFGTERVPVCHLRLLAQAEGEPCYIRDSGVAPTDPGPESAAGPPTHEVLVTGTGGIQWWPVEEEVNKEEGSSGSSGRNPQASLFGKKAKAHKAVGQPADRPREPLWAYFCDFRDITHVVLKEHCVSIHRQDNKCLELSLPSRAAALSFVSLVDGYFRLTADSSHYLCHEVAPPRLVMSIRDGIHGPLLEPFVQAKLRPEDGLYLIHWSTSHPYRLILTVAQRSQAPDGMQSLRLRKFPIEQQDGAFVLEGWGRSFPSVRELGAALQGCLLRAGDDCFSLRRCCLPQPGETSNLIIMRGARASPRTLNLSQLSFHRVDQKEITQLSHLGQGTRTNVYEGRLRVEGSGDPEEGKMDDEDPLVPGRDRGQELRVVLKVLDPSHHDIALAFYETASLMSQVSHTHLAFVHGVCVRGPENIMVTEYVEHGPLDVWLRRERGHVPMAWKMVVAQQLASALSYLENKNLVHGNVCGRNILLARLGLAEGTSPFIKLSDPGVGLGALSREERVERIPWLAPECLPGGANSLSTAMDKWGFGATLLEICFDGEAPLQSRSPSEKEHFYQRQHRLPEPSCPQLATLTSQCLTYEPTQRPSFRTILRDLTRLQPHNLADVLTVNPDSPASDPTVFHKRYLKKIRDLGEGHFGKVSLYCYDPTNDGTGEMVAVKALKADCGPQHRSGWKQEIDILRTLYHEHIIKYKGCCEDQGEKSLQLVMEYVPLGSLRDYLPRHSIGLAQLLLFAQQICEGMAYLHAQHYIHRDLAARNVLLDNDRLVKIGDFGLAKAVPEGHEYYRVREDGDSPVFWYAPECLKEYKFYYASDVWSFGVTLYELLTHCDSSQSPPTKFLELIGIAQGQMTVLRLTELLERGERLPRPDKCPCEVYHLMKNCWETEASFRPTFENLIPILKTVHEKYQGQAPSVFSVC
Chain of RAC-gamma serine/threonine-protein kinase (Homo sapiens) (Q9Y243 whole entry): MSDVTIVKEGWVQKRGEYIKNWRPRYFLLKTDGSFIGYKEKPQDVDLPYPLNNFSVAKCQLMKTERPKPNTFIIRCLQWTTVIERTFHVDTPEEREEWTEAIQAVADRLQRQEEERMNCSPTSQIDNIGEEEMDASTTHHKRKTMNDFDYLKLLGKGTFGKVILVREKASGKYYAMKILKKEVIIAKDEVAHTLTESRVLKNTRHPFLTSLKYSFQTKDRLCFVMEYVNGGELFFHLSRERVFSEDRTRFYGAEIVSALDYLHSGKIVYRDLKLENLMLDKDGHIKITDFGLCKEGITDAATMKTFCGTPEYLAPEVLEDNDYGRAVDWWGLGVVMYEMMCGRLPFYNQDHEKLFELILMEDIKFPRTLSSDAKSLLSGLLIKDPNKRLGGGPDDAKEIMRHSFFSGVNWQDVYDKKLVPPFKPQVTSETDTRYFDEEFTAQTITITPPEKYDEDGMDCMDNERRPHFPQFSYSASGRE
Chain of Phosphatidylinositol 3-kinase catalytic subunit type 3 (Homo sapiens) (Q8NEB9 whole entry): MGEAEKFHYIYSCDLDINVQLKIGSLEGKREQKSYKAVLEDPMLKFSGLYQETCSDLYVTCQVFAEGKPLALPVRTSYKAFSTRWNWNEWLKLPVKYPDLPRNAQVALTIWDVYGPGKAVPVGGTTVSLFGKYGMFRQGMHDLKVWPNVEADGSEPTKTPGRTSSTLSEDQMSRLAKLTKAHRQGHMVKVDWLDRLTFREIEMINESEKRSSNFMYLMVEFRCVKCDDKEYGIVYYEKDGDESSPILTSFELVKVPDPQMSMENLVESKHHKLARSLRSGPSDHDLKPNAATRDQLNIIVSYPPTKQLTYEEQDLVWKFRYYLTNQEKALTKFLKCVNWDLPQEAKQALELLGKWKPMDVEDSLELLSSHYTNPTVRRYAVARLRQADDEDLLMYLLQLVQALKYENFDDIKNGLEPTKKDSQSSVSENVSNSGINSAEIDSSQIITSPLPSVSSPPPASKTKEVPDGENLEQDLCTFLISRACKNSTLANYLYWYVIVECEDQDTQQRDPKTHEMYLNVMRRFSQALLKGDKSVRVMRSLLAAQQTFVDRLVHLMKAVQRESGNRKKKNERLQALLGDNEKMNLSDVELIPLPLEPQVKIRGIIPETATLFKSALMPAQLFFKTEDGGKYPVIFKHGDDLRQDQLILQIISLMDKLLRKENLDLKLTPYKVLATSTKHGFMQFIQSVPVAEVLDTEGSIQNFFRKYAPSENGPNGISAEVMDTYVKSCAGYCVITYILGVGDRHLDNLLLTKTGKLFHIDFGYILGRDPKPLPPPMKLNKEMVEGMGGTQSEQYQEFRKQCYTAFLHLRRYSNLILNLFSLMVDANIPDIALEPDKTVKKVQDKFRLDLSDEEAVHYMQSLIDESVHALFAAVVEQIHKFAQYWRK
Chain of Serine/threonine-protein kinase PLK4 (Homo sapiens) (O00444 whole entry): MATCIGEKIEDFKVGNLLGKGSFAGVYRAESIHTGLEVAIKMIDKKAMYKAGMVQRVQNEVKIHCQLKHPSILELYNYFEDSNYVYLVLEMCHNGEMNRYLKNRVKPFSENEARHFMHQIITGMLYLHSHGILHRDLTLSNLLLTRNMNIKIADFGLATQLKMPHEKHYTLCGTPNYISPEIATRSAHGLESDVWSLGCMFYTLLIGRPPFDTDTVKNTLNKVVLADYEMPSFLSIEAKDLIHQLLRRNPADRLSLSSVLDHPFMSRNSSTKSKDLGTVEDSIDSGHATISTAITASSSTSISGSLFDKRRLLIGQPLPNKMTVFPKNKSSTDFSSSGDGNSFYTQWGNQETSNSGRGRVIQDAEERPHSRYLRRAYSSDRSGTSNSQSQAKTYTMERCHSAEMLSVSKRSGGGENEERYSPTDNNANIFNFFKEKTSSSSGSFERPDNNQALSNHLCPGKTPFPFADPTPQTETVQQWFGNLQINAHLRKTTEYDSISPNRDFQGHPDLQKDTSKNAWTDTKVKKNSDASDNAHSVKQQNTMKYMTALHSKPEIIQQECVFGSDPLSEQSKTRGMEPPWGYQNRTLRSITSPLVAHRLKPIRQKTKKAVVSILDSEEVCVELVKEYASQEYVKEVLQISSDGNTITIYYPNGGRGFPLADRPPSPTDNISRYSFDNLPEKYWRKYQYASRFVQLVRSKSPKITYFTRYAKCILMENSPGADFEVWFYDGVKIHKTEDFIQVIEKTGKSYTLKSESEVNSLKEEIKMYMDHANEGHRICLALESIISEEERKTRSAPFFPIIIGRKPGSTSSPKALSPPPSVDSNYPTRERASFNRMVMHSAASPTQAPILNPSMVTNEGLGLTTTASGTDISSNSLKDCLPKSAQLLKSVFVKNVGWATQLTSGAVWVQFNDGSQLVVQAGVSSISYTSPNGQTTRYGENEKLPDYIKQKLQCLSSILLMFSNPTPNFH
Chain of Tyrosine-protein kinase Fgr (Homo sapiens) (P09769 2-529 limits assumed): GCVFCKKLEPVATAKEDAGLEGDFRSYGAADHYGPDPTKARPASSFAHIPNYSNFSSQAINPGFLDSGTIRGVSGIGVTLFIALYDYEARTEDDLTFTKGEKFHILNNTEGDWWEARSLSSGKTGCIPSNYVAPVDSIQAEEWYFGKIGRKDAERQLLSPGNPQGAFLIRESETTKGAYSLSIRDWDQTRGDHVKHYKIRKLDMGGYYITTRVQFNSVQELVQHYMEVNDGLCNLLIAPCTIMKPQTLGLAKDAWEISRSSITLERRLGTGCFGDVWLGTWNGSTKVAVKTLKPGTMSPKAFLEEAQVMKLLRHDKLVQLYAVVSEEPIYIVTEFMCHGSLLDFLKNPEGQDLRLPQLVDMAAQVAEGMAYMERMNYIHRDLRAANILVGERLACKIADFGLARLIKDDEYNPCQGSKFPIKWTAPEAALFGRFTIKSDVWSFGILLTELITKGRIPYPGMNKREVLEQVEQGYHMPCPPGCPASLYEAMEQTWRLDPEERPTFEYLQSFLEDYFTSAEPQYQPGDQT
Chain of Inhibitor of nuclear factor kappa-B kinase subunit alpha (Homo sapiens) (O15111 whole entry): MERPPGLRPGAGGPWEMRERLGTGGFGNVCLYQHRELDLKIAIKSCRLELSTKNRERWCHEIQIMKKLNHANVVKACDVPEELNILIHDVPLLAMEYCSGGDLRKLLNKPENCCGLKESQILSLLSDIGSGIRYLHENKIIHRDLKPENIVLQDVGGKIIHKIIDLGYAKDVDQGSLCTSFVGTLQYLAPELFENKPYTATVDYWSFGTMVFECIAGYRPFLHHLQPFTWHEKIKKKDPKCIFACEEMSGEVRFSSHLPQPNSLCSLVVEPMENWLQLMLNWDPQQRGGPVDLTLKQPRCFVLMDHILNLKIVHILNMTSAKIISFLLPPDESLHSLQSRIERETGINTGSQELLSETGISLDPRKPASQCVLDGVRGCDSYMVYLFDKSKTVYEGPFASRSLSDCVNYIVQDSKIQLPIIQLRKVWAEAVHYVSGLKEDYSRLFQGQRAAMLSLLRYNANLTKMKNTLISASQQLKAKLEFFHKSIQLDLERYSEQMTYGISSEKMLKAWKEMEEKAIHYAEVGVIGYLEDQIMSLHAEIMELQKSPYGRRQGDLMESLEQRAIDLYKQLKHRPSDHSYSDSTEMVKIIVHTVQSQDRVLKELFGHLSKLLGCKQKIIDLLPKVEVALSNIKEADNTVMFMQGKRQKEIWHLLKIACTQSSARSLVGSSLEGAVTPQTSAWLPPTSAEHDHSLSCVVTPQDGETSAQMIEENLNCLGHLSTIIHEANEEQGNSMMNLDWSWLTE
Chain of Sigma intracellular receptor 2 (Q5BJF2 whole entry): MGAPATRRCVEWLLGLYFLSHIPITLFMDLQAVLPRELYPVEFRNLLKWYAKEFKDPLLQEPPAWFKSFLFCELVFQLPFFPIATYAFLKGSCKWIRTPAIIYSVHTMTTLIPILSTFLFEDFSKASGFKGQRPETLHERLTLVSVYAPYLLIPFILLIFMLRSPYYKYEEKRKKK

O=C(NCCCC1CCCCC1)c1ccc(CNC(=O)c2cnn(-c3ccccc3)c2C(F)(F)F)cc1 [SR-321]
active: inhibition [23] 54.8%
inactive: residual activity [1] 100% | residual activity [2] 100% | residual activity [3] 100% | residual activity [4] 83% | inhibition [5] -0.05% | residual activity [6] 88% | residual activity [7] 95% | inhibition [8] 12.4% | residual activity [9] 97% | residual activity [10] 97% | residual activity [11] 100% | residual activity [12] 90% | residual activity [13] 100% | residual activity [14] 96% | residual activity [15] 97% | residual activity [16] 100% | residual activity [17] 100% | residual activity [18] 100% | residual activity [19] 100% | residual activity [20] 99% | residual activity [21] 100% | inhibition [22] 20.1% | residual activity [24] 100% | residual activity [25] 100% | residual activity [26] 100% | residual activity [27] 100% | residual activity [28] 100% | residual activity [29] 87% | residual activity [30] 100% | residual activity [31] 100% | residual activity [32] 100% | residual activity [33] 100% | inhibition [34] 15.8% | residual activity [35] 95% | residual activity [36] 86% | residual activity [37] 100% | residual activity [38] 94% | residual activity [39] 100% | residual activity [40] 70% | residual activity [41] 100% | residual activity [42] 100% | residual activity [43] 100% | residual activity [44] 100% | residual activity [45] 92%

Nc1c(C(=O)NCc2ccc(C(=O)NCCCC3CCCCC3)cc2)cnn1-c1ccccc1 [SR-318]
inactive: residual activity [1] 100% | residual activity [2] 100% | residual activity [3] 92% | residual activity [4] 85% | inhibition [5] 26.8% | residual activity [6] 100% | residual activity [7] 100% | inhibition [8] 6.62% | residual activity [9] 78% | residual activity [10] 96% | residual activity [11] 93% | residual activity [12] 100% | residual activity [13] 99% | residual activity [14] 100% | residual activity [15] 96% | residual activity [16] 99% | residual activity [17] 92% | residual activity [18] 94% | residual activity [19] 100% | residual activity [20] 92% | residual activity [21] 100% | inhibition [22] -4.14% | inhibition [23] 45.3% | residual activity [24] 74% | residual activity [25] 97% | residual activity [26] 88% | residual activity [27] 88% | residual activity [28] 100% | residual activity [29] 96% | residual activity [30] 97% | residual activity [31] 91% | residual activity [32] 100% | residual activity [33] 96% | inhibition [34] 15% | residual activity [35] 90% | residual activity [36] 100% | residual activity [37] 100% | residual activity [38] 100% | residual activity [39] 100% | residual activity [40] 96% | residual activity [41] 99% | residual activity [42] 100% | residual activity [43] 100% | residual activity [44] 100% | residual activity [45] 61%
